Measurements from patent US9763942B2, “Serine/threonine kinase inhibitors” (Array BioPharma Inc., priority 2013, dated 2017).

Target: T1, human ERK-2 (Mitogen Activated Kinase 1) (Homo sapiens, UniProt P28482)
T1 construct: n-terminal 6-His fusion protein in E. coli and corresponding to aa 8-360; 6-His (N); made in house; host or cells: E. coli
Experiment: ERK-2 Enzymatic Assay
Type: biochemical
Conditions: ERK-2 enzymatic assay; read-out: IC50
Source text: Table 1 contains representative data for Examples disclosed herein.

T1 sequence (P28482 8-360): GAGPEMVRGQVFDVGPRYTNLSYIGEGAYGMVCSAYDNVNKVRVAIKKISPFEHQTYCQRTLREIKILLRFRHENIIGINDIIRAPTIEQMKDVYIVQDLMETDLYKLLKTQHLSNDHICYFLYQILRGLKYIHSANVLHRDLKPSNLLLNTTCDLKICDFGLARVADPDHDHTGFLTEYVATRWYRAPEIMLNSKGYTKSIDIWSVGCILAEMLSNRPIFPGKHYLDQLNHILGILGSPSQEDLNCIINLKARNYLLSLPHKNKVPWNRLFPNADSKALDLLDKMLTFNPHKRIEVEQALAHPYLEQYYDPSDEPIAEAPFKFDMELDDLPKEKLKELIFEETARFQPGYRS

Row | Compound | IC50 [nM]
1 | COc1ccc(Cn2nnc3cc(-c4ccnc(Nc5nnn(C)n5)n4)ccc32)cc1F [Example 26, 4-(1-(3-fluoro-4-methoxybenzyl)-1H-benzoyl[d][1,2,3]triazol-5-yl)-N-(2-methyl-2H-tetrazol-5-yl)pyrimidin-2-amine] | < 100
2 | CCC(C)Cn1nnc2cc(-c3ccnc(Nc4ccnn4C)n3)ccc21 (stereo not shown) [Example 27] | < 100
3 | CCC(CC)Cn1nnc2cc(-c3ccnc(Nc4ccnn4C)n3)ccc21 [Example 28, 4-(1-(2-ethylbutyl)-1H-benzo[d][1,2,3]triazol-5-yl)-N(1-methyl-1H-pyrazol-5-yl)pyrimidin-2-amine] | < 100
4 | Cn1nccc1Nc1nccc(-c2ccc3c(c2)nnn3CC2CCCC2)n1 [Example 29, 4-(1-(cyclopentylmethyl)-1H-benzo[d][1,2,3]triazol-5-yl)-N-(1-methyl-1H-pyrazol-5-yl)pyrimidin-2-amine] | < 100
5 | COC(C)Cn1nnc2cc(-c3ccnc(Nc4ccnn4C)n3)ccc21 (stereo not shown) [Example 30, 4-(1-(2-methoxypropyl)-1H-benzo[d][1,2,3]triazol-5-yl)-N-(1-methyl-1H-pyrazol-5-yl)pyrimidin-2-amine] | < 100
6 | Cn1nccc1Nc1nccc(-c2ccc3c(c2)nnn3CC(C)(F)F)n1 [Example 31, 4-(1-(2,2-difluoropropyl)-1H-benzo[d][1,2,3]triazol-5-yl)-N-(1-methyl-1H-pyrazol-5-yl)pyrimidin-2-amine] | < 100
7 | Cn1ccc(Cn2nnc3cc(-c4ccnc(Nc5ccnn5C)n4)ccc32)n1 [Example 32, 4-(1-((1-methyl-1H-pyrazol-3-yl)methyl)-1H-benzo[d][1,2,3]triazol-5-yl)-N-(1-methyl-1H-pyrazol-5-yl)pyrimidin-2-amine] | < 100
8 | Cn1nccc1Nc1nccc(-c2ccc3c(c2)nnn3CC2CC(F)(F)C2)n1 [Example 34, 4-(1-((3,3-difluorocyclobutyl)methyl)-1H-benzo[d][1,2,3]triazol-5-yl)-N-(1-methyl-1H-pyrazol-5-yl)pyrimidin-2-amine] | < 100
9 | CN1CC(Cn2nnc3cc(-c4ccnc(Nc5ccnn5C)n4)ccc32)C1 [Example 36, N-(1-methyl-1H-pyrazol-5-yl)-4-(1-((1-methylazetidin-3-yl)methyl)-1H-benzo[d][1,2,3]triazol-5-yl)pyrimidin-2-amine] | < 100
10 | Cn1nccc1Nc1nccc(-c2ccc3c(c2)nnn3CC(F)F)n1 [Example 37, 4-(1-(2,2-difluoroethyl)-1H-benzo[d][1,2,3]triazol-5-yl)-N-(1-methyl-1H-pyrazol-5-yl)pyrimidin-2-amine] | < 100
11 | CC(C)Cn1nnc2cc(-c3ccnc(Nc4ccnn4C)n3)ccc21 [Example 38, 4-(1-isobutyl-1H-benzo[d][1,2,3]triazol-5-yl)-N-(1-methyl-1H-pyrazol-5-yl)pyrimidin-2-amine] | < 100
12 | Cn1nccc1Cn1nnc2cc(-c3ccnc(Nc4ccnn4C)n3)ccc21 [Example 39, N-(1-methyl-1H-pyrazol-5-yl)-4-(1-((1-methyl-1H-pyrazol-5-yl)methyl)-1H-benzo[d][1,2,3]triazol-5-yl)pyrimidin-2-amine] | < 100
13 | Cn1nccc1Nc1nccc(-c2ccc3c(c2)nnn3CCCF)n1 [Example 40, 4-(1-(3-fluoropropyl)-1H-benzo[d][1,2,3]triazol-5-yl)-N-(1-methyl-1H-pyrazol-5-yl)pyrimidin-2-amine] | < 100
14 | CC(O)CCn1nnc2cc(-c3ccnc(Nc4ccnn4C)n3)ccc21 (stereo not shown) [Example 41, 4-(5-(2-((1-methyl-1H-pyrazol-5-yl)amino)pyrimidin-4-yl)-1H-benzo[d][1,2,3]triazol-1-yl)butan-2-ol] | < 100
15 | COCCCn1nnc2cc(-c3ccnc(Nc4ccnn4C)n3)ccc21 [Example 42, 4-(1-(3-methoxypropyl)-1H-benzo[d][1,2,3]triazol-5-yl)-N-(1-methyl-1H-pyrazol-5-yl)pyrimidin-2-amine] | < 100
16 | COC(C)(C)Cn1nnc2cc(-c3ccnc(Nc4ccnn4C)n3)ccc21 [Example 44, 4-(1-(2-methoxy-2-methylpropyl)-1H-benzo[d][1,2,3]triazol-5-yl)-N-(1-methyl-1H-pyrazol-5-yl)pyrimidin-2-amine] | < 100
17 | CCOCC1(Cn2nnc3cc(-c4ccnc(Nc5ccnn5C)n4)ccc32)CC1 [Example 45, 4-(1-((1-(ethoxymethyl)cyclopropyl)methyl)-1H-benzo[d][1,2,3]triazol-5-yl)-N-(1-methyl-1H-pyrazol-5-yl)pyrimidin-2-amine] | < 100
18 | COCC(C)(C)Cn1nnc2cc(-c3ccnc(Nc4ccnn4C)n3)ccc21 [Example 46, 4-(1-(3-methoxy-2,2-dimethylpropyl)-1H-benzo[d][1,2,3]triazol-5-yl)-N-(1-methyl-1H-pyrazol-5-yl)pyrimidin-2-amine] | < 100

Other lines, results leading:

Row | IC50 [nM] | Compound
19 | < 100 | COc1ccc(Cn2nnc3cc(-c4ccnc(Nc5cnn(C)c5)n4)ccc32)cc1F [Example 2, 4-(1-(3-fluoro-4-methoxybenzyl)-1H-benzo[d][1,2,3]triazol-5-yl)-N-(1-methyl-1H-pyrazol-4-yl)pyrimidin-2-amine]
20 | < 100 | Cn1nccc1Nc1nccc(-c2ccc3c(c2)nnn3CCc2ccc(Cl)cc2)n1 [Example 3, 4-(1-(4-chlorophenethyl)-1H-benzo[d][1,2,3]triazol-5-yl)-N-(1-methyl-1H-pyrazol-5-yl)pyrimidin-2-amine]
21 | < 100 | COc1ccc(Cn2nnc3cc(-c4ccnc(N[C@H]5CCOC[C@H]5F)n4)ccc32)cc1F [Example 7, 4-(1-(3-fluoro-4-methoxybenzyl)-1H-benzo[d][1,2,3]triazol-5-yl)-N-((3S,4S)-3-fluorotetrahydro-2H-pyran-4-yl)pyrimidin-2-amine]
22 | < 100 | COc1ccc(Cn2nnc3cc(-c4ccnc(Nc5cnn(C)n5)n4)ccc32)cc1F [Example 9, 4-(1-(3-fluoro-4-methoxybenzyl)-1H-benzo[d][1,2,3]triazol-5-yl)-N-(2-methyl-2H-1,2,3-triazol-4-yl)pyrimidin-2-amine]
23 | < 100 | COc1ccc(Cn2nnc3cc(-c4ccnc(NC5COC5)n4)ccc32)cc1F [Example 10, 4-(1-(3-fluoro-4-methoxybenzyl)-1H-benzo[d][1,2,3]triazol-5-yl)-N-(oxetan-3-yl)pyrimidin-2-amine]
24 | < 100 | COc1ccc(Cn2nnc3cc(-c4ccnc(Nc5nnc(C)s5)n4)ccc32)cc1F [Example 11, N-(4-(1-(3-fluoro-4-methoxybenzyl)-1H-benzol[d][1,2,3]triazol-5-yl)pyrimidin-2-yl)-5-methyl-1,3,4-thiadiazol-2-amine]
25 | < 100 | COc1ccc(Cn2nnc3cc(-c4ccnc(NC5CCC5)n4)ccc32)cc1F [Example 12, N-cyclobutyl-4-(1-(3-fluoro-4-methoxybenzyl)-1H-benzo[d][1,2,3]triazol-5-yl)pyrimidin-2-amine]
26 | < 100 | COc1ccc(Cn2nnc3cc(-c4ccnc(NC(C)C)n4)ccc32)cc1F [Example 13, 4-(1-(3-fIuoro-4-methoxybenzyl)-1H-benzo[d][1,2,3]triazol-5-yl)-N-isopropylpyrimidin-2-amine]
27 | < 100 | COc1ccc(Cn2nnc3cc(-c4ccnc(NCC5CC5)n4)ccc32)cc1F [Example 14, N-(cyclopropylmethyl)-4-(1-(3-fluoro-4-methoxybenzyl)-1H-benzo[d][1,2,3]triazol-5-yl)pyrimidin-2-amine]
28 | < 100 | COc1ccc(Cn2nnc3cc(-c4ccnc(NC5CC5)n4)ccc32)cc1F [Example 15, N-cyclopropyl-4-(1-(3-fluoro-4-methoxybenzyl)-1H-benzo[d][1,2,3]triazol-5-yl)pyrimidin-2-amine]
29 | < 100 | COc1ccc(Cn2nnc3cc(-c4ccnc(NCC(C)(C)CO)n4)ccc32)cc1F [Example 16]
30 | < 100 | COc1ccc(Cn2nnc3cc(-c4ccnc(NCC5COC5)n4)ccc32)cc1F [Example 17, 4-(1-(3-fluoro-4-methoxybenzyl)-1H-benzo[d][1,2,3]triazol-5-yl)-N-(oxetan-3-ylrnethyl)pyrimidin-2-amine]
31 | < 100 | COc1ccc(Cn2nnc3cc(-c4ccnc(NCC(C)(C)O)n4)ccc32)cc1F [Example 18, 1-((4-(1-(3-fluoro-4-methoxybenzyl)-1H-benzo[d][1,2,3]triazol-5-yl)pyrimidin-2-yl)amino)-2-methylpropan-2-ol]
32 | < 100 | COc1ccc(Cn2nnc3cc(-c4ccnc(N[C@@H](C)CO)n4)ccc32)cc1F [Example 19, (S)-2-((4-(1-(3-fluoro-4-methoxybenzyl)-1H-benzo[d][1,2,3]triazol-5-yl)pyrimidin-2-yl)amino)propan-1-ol]
33 | < 100 | COc1ccc(Cn2nnc3cc(-c4ccnc(NC[C@@H](O)CO)n4)ccc32)cc1F [Example 20, (R)-3-((4-(1-(3-fluoro-4-methoxybenzyl)-1H-benzo[d][1,2,3]triazol-5-yl)pyrimidin-2-yl)amino)propane-1,2-diol]
34 | < 100 | COc1ccc(Cn2nnc3cc(-c4ccnc(NC5(C)COC5)n4)ccc32)cc1F [Example 21, 4-(1-(3-fluoro-4-methoxybenzyl)-1H-benzo[d][1,2,3]triazol-5-yl)-N-(3-methyloxetan-3-yl)pyrimidin-2-amine]
35 | < 100 | COc1ccc(Cn2nnc3cc(-c4ccnc(NC(C)(C)CN5CCOCC5)n4)ccc32)cc1F [Example 23, 4-(1-(3-fluoro-4-methoxybenzyl)-1H-benzo[d][1,2,3]triazol-5-yl)-N-(2-methyl-1-morpholinopropan-2-yl)pyrimidin-2-amine]
36 | < 100 | COc1ccc(Cn2nnc3cc(-c4ccnc(Nc5nnnn5C)n4)ccc32)cc1F [Example 24, 4-(1-(3-fluoro-4-methoxybenzyl)-1H-benzo[d][1,2,3]triazol-5-yl)-N-(1-methyl-1H-tetrazol-5-yl)pyrimidin-2-amine]
37 | < 100 | COc1ccc(Cn2nnc3cc(-c4ccnc(Nc5cc(C6CC6)nn5C)n4)ccc32)cc1F [Example 25, N-(3-cyclopropyl-1-methyl-1H-pyrazol-5-yl)-4-(1-(3-fluoro-4-methoxybenzyl)-1H-benzoyl[d][1,2,3]triazol-5-yl)pyrimidin-2-amine]
